# Key:
# Assay type in all cases: cell-based
# [1] = system: T cells; assay: ARM-BCMA CAR expression kinetics in vitro with or without AZT (FACS); details: 30 µM and 100 µM doses
# Description: In contrast to TM which measures lentiviral integration of the CAR transgene after 8-9 days, in the ARM process, the lentiviral transgene may not be fully integrated and truly expressed within 24h post lentiviral addition, as lentiviral pseudotransduction could occur (Haas DL, et al., (2000) Mol Ther; 2(1):71-80; Galla M, et al., (2004) Mol Cell; 16(2):309-15). […] Flow cytometry (FACS) analyses were performed to detect CAR surface expression at 24 h, 48 h, 72 h, 96 h and 168 h post T cell activation and transduction with the lentiviral vector. In some cases, ARM-BCMA CAR and an aliquot of this product were frozen down immediately upon harvest for additional characterization in other assays.
# [2] = system: T cells; assay: T cell expansion with cytokines after TCR stimulation (cell surface staining)
# Description: Previously frozen T cells were thawed and contacted with αCD3/αCD28 dynal beads (cell to bead ratio of 1 to 3) in the presence of indicated cytokines at day 0. From day 3, twice more T cell growth media (RPMI1640, 10% FBS, 2 mM L-glutamin, 100 µM non-essential amino acids, 1 mM sodium pyruvate, 10 mM Hepes, 55 µM β-mercaptoethanol, 10% FBS, and 100 U/ml of penicillin-streptomycin) was added to the plate with indicated cytokines (without cytokine, rhIL2 (50 IU/ml, Novartis), IL6 (10 ng/ml, R&D systems), IL7 (10 ng/ml, Peprotech), IL15 (10 ng/ml, Peprotech), and IL21 (10 ng/ml, Peprotech)) at day 3, 5, 6, 9, 12, 15, and 18.
# Cells were harvested at indicated time points and then stained with live/dead dye (eFluro780, eBioscience), CD3 (BioLegend, clone#: OKT3), CD4 (BioLegend, clone#: OKT4), CD8 (BD Bioscience, clone#: RPA-T8), CD45RO (BioLegend, clone#: UCHL1), CCR7 (BioLegend, clone#: G043H7), CD27 (BD Horizon, clone#: L128), CD127 (BioLegend, clone#: A019D5), CD57 (BioLegend, clone#: HCD57), CD126 (BioLegend, clon#: UV4), and CD130 (R&D Systems, clone#: 28126) antibodies. The cells were acquired by FACS Fortessa and then FlowJo program was used for data analysis.
# [3] = system: T cells; assay: Cytokine process: T cell differentiation status and CAR transduction by flow cytometry; details: purified T cells incubated with cytokine, no other activation stimulus
# Description: The cells were immunophenotyped for T cell differentiation status and transduction of the CAR was assessed using flow cytometry. The cells were washed, viability dye was added followed by the antibody cocktail (Table 20), and the plates were incubated for 20 minutes at room temperature. After the incubation, the cells were washed twice and fixed prior to being analyzed on the BD fortessa.
compound,measurement,setting,value
"Cc1cn([C@H]2C[C@H](N=[N+]=[N-])[C@@H](CO)O2)c(=O)[nH]c1=O [AZT, 3′-azido-3′-deoxythymidine]",inhibition of CAR expression,[1],effectively inhibit CAR expression
IL15: cytokine present during activation of T cells with αCD3αCD28 beads,expansion of IL6Rβ expressing cells,[2]; αCD3/αCD28 beads plus cytokine,enhanced expansion of IL6Rβ expressing cells
same,T cell expansion,[2]; αCD3/αCD28 beads plus indicated cytokine,"enhanced T cell expansion, with IL15 showing the greatest enhancement"
IL-15: cytokine used in T cell culture,maintenance of self-renewing T cells (CD45RO-CCR7+),[3],maintained self-renewing T cells in vitro
